The conditions of series [1]: background literature, cited from earlier work.
Series [2] is described as follows: Acute toxicity, oral, one week. As to conditions: rat, in vivo, 5% gum arabic suspension. An excerpt: Six-week-old male Wister rats weighing 180 to 200 g are used, 5 rats in each group. The present compound is suspended in a 5% aqueous solution of gum arabic, and the suspension is orally given to the rats. For one week after the start of the test, the rats are checked evey day for general toxicity symptoms, body weight and death to determine the LD50 value.

In series [3] the target is esterase (purified microsome fraction of the liver of a rat). The series is described as follows: Esterase inhibiting activity (hydrolysis of methyl butyrate). The series is classed as biochemical. As to conditions: methyl butyrate substrate, pH 8.0, 37° C., 60 minutes. How it is done:
1. Esterase Inhibiting Activity
A 10 micromole quantity of methyl butyrate in a 50% ethanol solution is added as a substrate to a specified amount of buffer solution (pH 8.0) containing 0.1 mole of trishydrochloric acid. To the mixture is further added a 50% ethanol solution of the compound of the invention, immediately followed by addition of an esterase solution prepared from a purified microsome fraction of the liver of a rat (adjusted to hydrolyze 9 micromoles of methyl butyrate at 37° C. in one hour). The mixture is reacted at 37° C. for 60 minutes.
After the reaction, alkaline hydroxylamine is added to the mixture to form a hydroxamic acid derivative of methyl butyrate, and a ferric salt is added to the derivative. The resulting red color is colorimetrically determined (at a wavelength of 540 nm) to determine the amount of remaining methyl butyrate. The esterase inhibiting ratios of the present compound at least at three concentrations are plotted as ordinate, and the logarithms of the concentrations as abscissa to obtain a line, which gives the 50% inhibition concentration (IC50).

The subject of series [4] is triglycerides content in the plasma. The series is described as follows: Antilipemic effect: inhibition of olive oil-induced hyperlipidemia, plasma triglycerides. Type of series: in vivo, male Wister rats. As to conditions: Rattus norvegicus, 100 mg compound in 5 ml olive oil, 5 ml/kg oral, 2 hours, read-out: Antilipemic effect IGI (%) (percent hyperlipidemia inhibition, triglycerides). How it is done:
Seven-week-old male Wister rats weighing 200 to 220 g are used, 5 rats in each group.
The compound of the invention (100 mg) is dissolved in 5 ml of olive oil. The olive oil containing the compound is orally given to the rat with a probe at a dose of 5 ml/kg. Two hours thereafter, 6 ml of whole blood is withdrawn from the descending aorta of the rat under ether anesthesia with a syringe containing heparin. The blood is centrifuged at 5° C. and 3000 r.p.m. to obtain the plasma. The plasma collected is used for determining the triglycerides content, using a triglycerides measuring kit (trade mark "Triglycerides-B Test Wako," product of Wako Junyaku Co., Ltd., Japan). Olive oil containing no compound is similarly given to a control group, while no treatment is conducted for a normal group. The triglycerides content in the plasma is also determined for these groups in the same manner as is the case with the test groups.
The percent hyperlipidemia inhibition achieved by the present compound is given by [formula] in which A is the triglycerides content of the control group, B is the triglycerides content of the normal group, and C is the triglycerides content of the group to which the present compound is given.

Series [5] concerns the target Chymotripsin (Bos taurus, UniProt P00766). As to the kind of experiment: Chymotripsin inhibiting activity (hydrolysis of ATEE). The series is classed as biochemical. Conditions: 0.5 h; 1 × 10^-4 mol; 20 min preincubation, ATEE 30 min, 37° C., pH 8.0. As to the method:
2. Chymotripsin Inhibiting Activity
Chymotripsin (0.1 unit) serving as an enzyme solution is added to a specified quantity of buffer solution (pH 8.0) containing 0.1 mole of trishydrochloric acid. To the mixture is further added a 50% ethanol solution of the compound of the invention. The mixture is reacted at 37° C. for 20 minutes.
On completion of the reaction, 10 micromoles of […] (ATEE) serving as a substrate is added to the mixture, and the resulting mixture is reacted at 37° C. for 30 minutes.
After the completion of the reaction, the amount of remaining ATEE is determined by the same hydroxamic acid method as above. The percent chymotripsin inhibition is given by [formula] wherein A is the amount of hydrolzed esters in the reaction system not containing the compound of the invention, and B is the amount of hydrolyzed esters in the reaction system containing the present compound.

Like-named read-outs stand apart in the source and are kept apart here. Where only a bound is given, the exact number is not on record here.

As to `CCOC(=O)C(C)(C)Oc1ccc(Cl)cc1` [Clofibrate], the “reported side effects (in words)” value in series [1] was “carcinogenic activity”; in series [1] (listed as clofibrate), “increased sterol discharge”.

Regarding `O=C(O)c1cccnc1` [Nicotinic acid], the “reported side effects (in words)” value in series [1] was “pruritus and cutaneous flushing due to vasodilatation, gastrointestinal disorders, abnormalities in liver function and glucose intolerance”.

The compound `Cc1ccc(S(=O)(=O)OCC(=O)CC2CCC(C)CC2)cc1` (centres unmarked) [Compound 15, 1-(4-methylcyclohexyl)-3-(p-toluenesulfonyloxy)-2-propanone] registered an LD50 at 168 h in series [2] of more than 2000 mg/kg. Besides, in series [3], 1400 nM corresponded to half-maximal inhibition (IC50). The inhibition in vivo at 100 mg/kg in series [4] was determined as 85%. For the same compound, in series [5], 100 µM produced 94% inhibition.

On to `CCOc1ccc(S(=O)(=O)OCC(=O)C2CCC(CC)CC2)cc1` (centres unmarked) [Compound 23], for which the LD50 at 168 h in series [2] was more than 3000 mg/kg. In series [3], this compound registered an IC50 of 1400 nM. The inhibition in vivo at 100 mg/kg in series [4] stood at 67%. This compound also registered an inhibition at 100 µM in series [5] of 24%.

Compound `CCC(C)[C@H]1CC[C@@H](C(=O)COS(=O)(=O)c2ccccc2)CC1` (some centres unmarked) [Compound 32] displayed an LD50 at 168 h in series [2] of more than 3000 mg/kg. Moreover, in series [3], the IC50 is 560 nM. Further, the inhibition in vivo at 100 mg/kg in series [4] was 61%. The same compound registered an inhibition at 100 µM in series [5] of 13%.

The compound `CCC(CC1CCCCC1)C(=O)COS(=O)(=O)c1ccccc1` (centres unmarked) [Compound 5, 1-benzenesulfonyloxy-4-cyclohexyl-3-ethyl-2-butanone] yielded an LD50 at 168 h in series [2] of more than 2000 mg/kg. The midpoint of inhibition in series [3], the IC50, lay at 4700 nM. For the same compound, in series [4], the inhibition in vivo at 100 mg/kg was 80%. Further, in series [5], testing at 100 µM gave an inhibition of 12%.

Take `CCOc1ccc(S(=O)(=O)OCC(=O)CC2CCCCC2C)cc1` (centres unmarked) [Compound 19]: the LD50 at 168 h in series [2] is more than 3000 mg/kg. For the same compound, inhibition in series [3] was half-maximal at 5400 nM (IC50). Besides, the inhibition in vivo at 100 mg/kg in series [4] came to 74%. Further, the inhibition at 100 µM in series [5] came out at 57%.

For the compound `Cc1ccc(S(=O)(=O)OCC(=O)C(C)CC2CCCCC2)cc1` (centres unmarked) [Compound 2], the LD50 at 168 h in series [2] was more than 2000 mg/kg. In series [3], this compound had an IC50 of 7800 nM. Further, in series [4], the inhibition in vivo at 100 mg/kg came out at 50%. The compound further gave an inhibition at 100 µM in series [5] of 90%.

With `CC(CC(=O)COS(=O)(=O)c1ccccc1)C1CCCCC1` (centres unmarked) [Compound 8], in series [2], the LD50 at 168 h is more than 3000 mg/kg. The IC50 in series [3] is 800 nM. Besides, in series [4], the inhibition in vivo at 100 mg/kg was 73%. The compound also gave an inhibition at 100 µM in series [5] of 31%.

For `CC(CC1CCCCC1)C(=O)COS(=O)(=O)c1ccccc1` (centres unmarked) [Compound 1, 1-benzenesulfonyloxy-4-cyclohexyl-3-methyl-2-butanone], in series [2], the LD50 at 168 h is more than 2000 mg/kg. This compound also gave an IC50 in series [3] of 350 nM. For the same compound, the inhibition in vivo at 100 mg/kg in series [4] is 60%. Further, 100 µM produced 100% inhibition in series [5].

The LD50 is the dose expected to kill half of the subjects tested. Low readings indicate greater toxicity, high ones lower toxicity. By IC50 is commonly meant the concentration at which inhibition is half-maximal. The term inhibition denotes the drop in the measured response relative to a control, in per cent. Low readings indicate a response near the control, high ones a response far below the control.
